# Assay results taken from patent US20250129021A1, “SMALL MOLECULE PROTEIN SYNTHESIS MODULATORS” (Interdict Bio, Inc., priority 2023, published 2025).
# Legend:
# Type in all cases: biochemical
# Settings in all cases: HeLa S3 lysate, sfGFP/mCherry ratio, 2 hrs at 30° C.
# MYC = assay: In vitro transcription-translation (IVTT) assay, MYC reporter
# Outline: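 Reporter: mCherry, P2A, then 3×FLAG-target peptide-sfGFP fusion, IRES-initiated; HeLa S3 lysate IVTT; cpd dilutions 30 μM−0.1 μM half-log in 100% DMSO (dilution-plate conc); DNA added last; 2 h, 30° C; PBS quench.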
# ALK = assay: In vitro transcription-translation (IVTT) assay, ALK reporter
# Source text: (§1) All reporter constructs have been cloned into the pT7CFE1-CHis plasmid (ThermoFisher #88860) using Gibson assembly procedures (NEB #E2611L). The parental pT7CFE1-CHis plasmid contains an EMCV IRES at the 5′UTR for translation initiation, a multiple-cloning site (MCS) for gene insertion, an optional C-terminal His-epitope tag, and polyA sequence in the 3′UTR to regulate mRNA stability. All reporters are designed to be inserted at the MCS to include a red fluorescent protein (mCherry), P2A self-cleaving peptide which releases the preceding mCherry protein product, and a fusion open reading frame containing a 3×FLAG epitope, a peptide sequence of interest (TEST), and green fluorescent protein (sfGFP).
# (§2) Construct Plasmid Preparation: All plasmids are isolated from MACH1 cells (ThermoFisher) grown overnight in ampicillin-containing luria broth, and purified using ZymoPure Express Plasmid Midiprep Kit (Zymo Research). Constructs are sequenced verified and diluted to a working concentration of 110 ng/μL.
# (§3) HeLa S3 Lysate Preparation: HeLa S3 cell pellets are acquired from Ipracell/Ipratech (Belgium) and shipped as 4 mL frozen cell pellets on dry ice for storage at −80° C. until use. The procedure for lysate preparation is as follows. Prepare 1× Lysis Buffer, cold and stored on ice:
# (§4) Each preparation takes 8 cell pellets (4 ml packed volume each, approximately 1.0×10^9 cells per pellet). Thaw cell pellets from −80° C. on ice for 90 mins. Lay pellets horizontally on top of the ice and rotate every 30 mins to ensure even thawing. Once thawed, add 4 mL of cold lysis buffer to each pellet, and using a serological pipet, gently pipet up and down to break up clumps. Incubate resuspended cells in ice for an additional 30 mins (plunged into ice). During 30 min incubation, rinse and RNase-zap (Ambion) glass dounces (use loose pestle “A”), gently dry and place on ice until needed. Prepare RNase-free Eppendorf tubes for spinning and for batch storage. Add batch labels to 1.5-1.7 mL RNase-free microcentrifuge tubes (labeling scheme below). Each batch will have an extra 1.5-1.7 mL RNase-free microcentrifuge tube for 40 μL of lysate, label the top of this tube (labeling scheme below). After 30 min incubation, transfer all 8 mL of cell pellet to dounce. Cell lysis is complete after douncing 100 times. Aliquot cell lysis into 1.5-1.7 mL temporary-microcentrifuge tubes. Place tubes in centrifuge with “fins” out, and spin at 1,200×g for 5 mins. After the first spin use a 1 mL pipet to resuspend each tube and repeat spin. This acts as an additional lysis step, is more vigorous and increases lysate yield. During second spin get liquid N2 and a fresh conical tube on ice. After spin is complete, transfer supernatant (lysate) from microcentrifuge tubes into the 50 mL conical tube and keep on ice. Repeat steps 10-14 for all other cell pellets until completed. Once all cell lysate has been transferred to the 50 mL conical tube pipet to mix so the solution is homogenous. Transfer 1 mL of lysate into batch-labeled microcentrifuge tubes and flash freeze in liquid nitrogen. Be sure to pipet up and down to mix throughout transfer step. Place all tubes in the […] for long-term storage.
# (§5) In vitro transcription-translation assay setup: Each assay includes a master mix containing lysate and shared components, a 96-well plate containing compound titrations for testing, a 96-well DNA plate with reporter constructs to be tested, 96-well skirted PCR plates, and 96-well flat-bottom, black, fluorescent assay plates. […]
# KRAS G12D = assay: In vitro transcription-translation (IVTT) assay, KRAS G12D reporter
# Source text: as §1, §2, §3, §4, §5
SMILES,IC50 (MYC),IC50 (ALK),IC50 (KRAS G12D)
"COc1ccc(C[C@H]2NC[C@H](O)[C@H]2OC(=O)Nc2n[nH]c(C)n2)cc1 [V187657, (2R,3S,4S)-4-hydroxy-2-[(4-methoxyphenyl)methyl]pyrrolidin-3-yl N-(5-methyl-1H-1,2,4-triazol-3-yl) carbamate]",10 to 20 µM,< 10 µM,20 to 30 µM
"CCN(CC)CCCCNC(=O)O[C@@H]1[C@@H](O)CN[C@@H]1Cc1ccc(OC)cc1 [V187385, (2R,3S,4S)-4-hydroxy-2-[(4-methoxyphenyl)methyl]pyrrolidin-3-yl N-[4-(diethylamino)butyl]carbamate; trifluoroacetic acid]",10 to 20 µM,< 10 µM,20 to 30 µM
COc1ccc(C[C@H]2NC[C@H](O)[C@H]2OC(=O)NCC[C@H]2CN(CC3CC3)CCN2Cc2ccccc2)cc1 [V187344],> 30 µM,> 30 µM,> 30 µM
"COc1ccc(C[C@H]2NC[C@H](O)[C@H]2OC(=O)Nc2nsc(C)n2)cc1 [V187652, (2R,3S,4S)-4-hydroxy-2-[(4-methoxyphenyl)methyl]pyrrolidin-3-yl N-(5-methyl-1,2,4-thiadiazol-3-yl)carbamate; trifluoroacetic acid]",> 30 µM,> 30 µM,> 30 µM
"COc1ccc(C[C@H]2NC[C@H](O)[C@H]2OC(=O)NCCN2CCCC2)cc1 [V187565, (2R,3S,4S)-4-hydroxy-2-[(4-methoxyphenyl)methyl]pyrrolidin-3-yl N-[2-(pyrrolidin-1-yl)ethyl]carbamate; trifluoroacetic acid]",> 30 µM,< 10 µM,> 30 µM
"COc1ccc(C[C@@H]2NC[C@@H](O)[C@H]2OC(=O)NCCN(Cc2c[nH]cn2)C(=O)C2CCC2)cc1 [V187540, (2S,3S,4R)-4-hydroxy-2-[(4-methoxyphenyl)methyl]pyrrolidin-3-yl N-{2-[1-cyclobutyl-N-(1H-imidazol-4-ylmethyl)formamido]ethyl}carbamate]",> 30 µM,10 to 20 µM,> 30 µM
"CCN(CC)Cc1nnc(NC(=O)O[C@@H]2[C@@H](O)CN[C@@H]2Cc2ccc(OC)cc2)s1 [V187552, (2R,3S,4S)-4-hydroxy-2-[(4-methoxyphenyl)methyl]pyrrolidin-3-yl N-{5-[(diethylamino)methyl]-1,3,4-thiadiazol-2-yl}carbamate; trifluoroacetic acid]",> 30 µM,> 30 µM,> 30 µM
"COc1ccc(CC2NCC(O)C2OC(=O)NC2CC(N)C2)cc1 [V187682, (2R,3S,4S)-4-hydroxy-2-[(4-methoxyphenyl)methyl]pyrrolidin-3-yl N-[(1r,3r)-3-aminocyclobutyl]carbamate]",> 30 µM,10 to 20 µM,> 30 µM

# Now from value to molecule:
IC50 (MYC),IC50 (ALK),IC50 (KRAS G12D),SMILES
> 30 µM,> 30 µM,> 30 µM,"COc1ccc(C[C@H]2NC[C@H](O)[C@H]2OC(=O)NCCN(C(C)C)C(C)C)cc1 [V187436, (2R,3S,4S)-4-hydroxy-2-[(4-methoxyphenyl)methyl]pyrrolidin-3-yl N-[2-(diisopropylamino)ethyl]carbamate]"
10 to 20 µM,< 10 µM,20 to 30 µM,COc1ccc(C[C@H]2NC[C@H](O)[C@H]2OC(=O)NCCN2CC(O)C(F)(F)C2)cc1 (stereo partly drawn) [V187620]
> 30 µM,> 30 µM,> 30 µM,"COc1ccc(C[C@H]2NC[C@H](O)[C@H]2OC(=O)NCC[C@H]2CN(CC3CCCO3)CCN2Cc2ccccc2)cc1 (stereo partly drawn) [V187345, (2R,3S,4S)-4-hydroxy-2-[(4-methoxyphenyl)methyl]pyrrolidin-3-yl N-{2-[(2S)-1-benzyl-4-(oxolan-2-ylmethyl)piperazin-2-yl]ethyl}carbamate]"
20 to 30 µM,> 30 µM,> 30 µM,"COc1ccc(C[C@H]2NC[C@H](O)[C@H]2OC(=O)NC[C@@H]2CCCN2)cc1 [V187684, (2R,3S,4S)-4-hydroxy-2-[(4-methoxyphenyl)methyl]pyrrolidin-3-yl N-[(2S)-pyrrolidin-2-ylmethyl]carbamate; trifluoroacetic acid]"
